Experimental data: patent US20250359547A1, “ALKOXYLATED ALKANOLS FOR ENHANCING THE ACTIVITY OF ANTIMICROBIAL AGENTS” (BASF SE, priority 2022, published 2025)

System: Escherichia coli (E. coli DSM 682)
Test: Bactericidal activity of cleaner/disinfecting formulations according to DIN EN 1276-2010 under dirty conditions
Type: cell-based
Details: no ethoxylated alkanol, 0.3% bovine albumin, 35° C., 5 min contact time
Procedure: For biological activity testing, the following microorganisms were used: Escherichia coli(E. coli DSM 682)
Lutensol® XP 40 and benzalkonium chloride (BAC) were formulated into a dilutable concentrated hard-surface cleaner. For comparison, corresponding formulations containing Lutensol® XP 70 or Lutensol® A 7 N instead of Lutensol® XP 40 were also prepared. The finished formulations were pre-dissolved 1:80 in standardized hard water (DIN EN 1276-2010) and then diluted to 80% by adding 1 ml of the inoculate and 1 ml of bovine albumin solution to 8 ml of the pre-dissolved cleaner, so that in-test a dilution of 1:100 was obtained.
(§1) Antimicrobial testing of the above formulations in 1:100 dilution was done according to European Standard (DIN EN 1276-2010) under dirty conditions, i.e. additional soiling of 0.3% bovine albumin at 35° C. and 5 mi contact time. Neutralization was done using the Saponin-containing neutralizer as described in DIN EN 1276 (30 g/l Polysorbate 80+30 g/l Saponin+3 g/l Lecithin). Results are documented in the table below as logarithmic reduction (Ig R) in comparison to the number of microorganisms used for the test.
Benzalkonium chloride (BAC) and one of Lutensol® XP 30, Lutensol® XP 40 and Lutensol® XP 50 were formulated into a dilutable concentrated hard-surface cleaner. The finished formulations were pre-dissolved 1:80 in standardized hard water (DIN EN 1276-2010) and then diluted to 80% by adding 1 ml of the inoculate and 1 ml of bovine albumin solution to 8 ml of the pre-dissolved cleaner, so that in-test a dilution of 1:100 was obtained.
as §1, with “5 min” for “5 mi”, “test. […]” for “test.”

SMILES	E. coli logarithmic reduction (lg R) (Example 1, BAC 40 ppm in-test, 1:100 dilution, pH ca. 8)	E. coli logarithmic reduction (lg R) (Example 2, BAC 40 ppm in-test)	E. coli logarithmic reduction (lg R) (Example 3, DDAC 20 ppm in-test)
CCCCCCCCCCCC[N+](C)(C)Cc1ccccc1.[Cl-] [BAC, lauryl dimethyl benzyl ammonium chloride]	<0.87	0.4	–
CCCCCCCCCC[N+](C)(C)CCCCCCCCCC.[Cl-] [DDAC, didecyldimethylammonium chloride]	–	–	0.7
